Reference: patent publication US7090853B2, “Noscapine derivatives as adjuvant compositions and methods of use thereof” (Emory University, priority 1999, dated 2006)
“Also recorded” adds a separate entry of the source.

Assays:
solid lymphoid tumors = experiment: Apoptosis in solid lymphoid tumors induced in mice (H&E microscopy); assay type: in vivo; details: Haemotoxline and Eosine stained cells
bovine brain tubulin [1] = target: T1, bovine brain tubulin (Bos taurus, UniProt P81947+Q6B856); experiment: Microtubule assembly, turbidity at 350 nm; assay type: biochemical; details: 20 μM noscapine, G-PEM buffer, 37° C.
T1 sequence (P81947 whole entry): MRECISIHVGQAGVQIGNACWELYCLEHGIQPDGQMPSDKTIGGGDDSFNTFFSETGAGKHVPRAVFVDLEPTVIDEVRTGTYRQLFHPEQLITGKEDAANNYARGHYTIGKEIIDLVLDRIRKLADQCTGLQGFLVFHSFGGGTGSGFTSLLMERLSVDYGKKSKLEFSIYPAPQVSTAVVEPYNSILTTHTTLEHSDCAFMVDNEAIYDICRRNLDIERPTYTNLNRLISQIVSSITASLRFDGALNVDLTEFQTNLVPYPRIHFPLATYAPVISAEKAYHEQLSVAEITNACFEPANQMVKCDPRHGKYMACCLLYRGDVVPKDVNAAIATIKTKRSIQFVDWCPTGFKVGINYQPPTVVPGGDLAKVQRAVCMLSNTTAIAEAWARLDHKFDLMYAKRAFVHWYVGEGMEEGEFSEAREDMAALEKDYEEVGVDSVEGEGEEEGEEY
T1 sequence (Q6B856 whole entry): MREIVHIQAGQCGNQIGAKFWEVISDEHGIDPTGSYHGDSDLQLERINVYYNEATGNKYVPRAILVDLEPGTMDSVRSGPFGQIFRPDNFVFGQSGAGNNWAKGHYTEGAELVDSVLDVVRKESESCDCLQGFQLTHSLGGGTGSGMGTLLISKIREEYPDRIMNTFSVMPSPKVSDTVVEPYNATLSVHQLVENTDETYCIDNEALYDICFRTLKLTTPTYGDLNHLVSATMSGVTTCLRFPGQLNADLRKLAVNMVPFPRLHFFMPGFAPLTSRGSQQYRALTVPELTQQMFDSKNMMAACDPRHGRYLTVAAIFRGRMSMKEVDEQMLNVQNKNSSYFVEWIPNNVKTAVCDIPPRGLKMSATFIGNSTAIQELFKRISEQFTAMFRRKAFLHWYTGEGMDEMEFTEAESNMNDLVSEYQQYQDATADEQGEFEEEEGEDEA
Experimental: (§1) Phosphocellulose purified bovine brain tubulin was employed throughout these biophysical experiments. Fluorescence titration for determining binding constants was performed according to Peyrot, V. et al., Biochemistry 31, 11125 (1992). […], at room temperature, 2 μM tubulin in 100 mM PIPES, 2 mM EGTA, 1 mM MgCl2 was excited at 278 nm, and the fluorescence emission spectra were recorded with bandwidths […]. The fluorescence emission intensity of noscapine at this excitation wavelength was negligible and at the concentration of noscapine used it gave no appreciable inner filter effect. The concentration of noscapine was raised in increments of 0.5 μM, until the decrease in the fluorescence intensity was saturated. The value of the dissociation constant and the number of sites were obtained from Scatchard plots using the equation, r/[L]free=n/K^d−r/Kd, where r is the ratio of the concentration of bound ligand to the total protein concentration and n is the number of binding sites. […] Microtubule assembly was recorded on a spectrophotometer with thermocontroler, The cuvettes (0.4 cm path) containing 100 mM PIPES, 2 mM EGTA, 1 mM MgCl2 and 1 mM GTP (G-PEM buffer), and 20 μM noscapine/DMSO were kept at room temperature before addition of tubulin and shifting to 37° C. […] The assembly was monitored by measuring the changes in turbidity at […]. intervals. […]

E.G7-OVA tumor cells = experiment: Survival and tumor regression of E.G7-OVA tumor-bearing mice, noscapine in drinking water; assay type: in vivo, C57BL/6 mice
Experimental: C57BL/6 mice were injected s.c. with 2×10^6 E.G7-OVA tumor cells. Three days later, two groups received the indicated dose of noscapine in their drinking water. There were 5 mice/group. Untreated mice survived from 6 to 7 weeks after tumor inoculation. In marked contrast, the majority of the mice treated with 1.5 or 3.0 mg/ml Noscapine survived for greater than 16 weeks when the experiment was terminated.
FIGS. 3A–3I show B6 mice were injected subcutaneously with 2×10^6 E.G7-OVA tumor cells and after three days half of the mice were treated continuously with 1.5 or 3.0 mg noscapine/ml of drinking water. All of the untreated mice developed tumors and were euthanized after three weeks. […] Normal B6 mice (A–C) and mice treated for 3 months with noscapine (D–F) were euthanized.
To test whether E.G7-OVA tumor induced tolerance, tumors were ablated by treating the mice with noscapine in the drinking water beginning three days after tumor transplantation. Tumors grew in all mice that had received E.G7-OVA without noscapine.

Hela cells = experiment: M phase arrest, alpha-tubulin immunofluorescence and flow cytometry; assay type: cell-based; details: 20 μM Noscapine, 24 hr
Experimental: (§2) Hela cells were grown in DMEM supplemented with 10% fetal calf serum, 1 mM L-glutamine and 1% penicillin/−streptomycin. The tumor cell line E.G7-OVA (H-2^b) [Moore, M. W., et al., Cell 54,777 (1988)] was grown in RPMI 1640 with 10% fetal calf serum, 1% sodium pyruvate, 1 mM L-glutamine, 0.1% gentamycin, 50 μM β-mercaptoethanol. Cells were grown at 37° C. in a 5% CO2 atmosphere. Cell viability was assessed by trypan blue exclusion analysis. Cell numbers were determined using a hemacytometer. C57BL/6(H-2^b) mice, 8 to 12 weeks of age, were obtained from Harian Sprague Dawley, Inc. (Indiananapolis, Ind.). Mice were maintained on standard laboratory chow and water ad libitum in a temperature and light controlled environment. For immunofluorescence, both Hela and thymocyte cells were treated identically except the Hela cells were grown onto glass coverslips while EL4 thymocytes were put on glass coverslips after fixation. Cells in 10 ml medium were incubated with 2 μl DMSO or 20 μM Noscapine (2 μl 0.1 M DMSO solution) respectively. After 24 hr, cells were fixed with cold (−20° C.) methanol for 5 min., then rehydrated by PBS for 1 min. Nonspecific sites were blocked by incubating with 200 μl of 1% bovine serum albumin (BSA) in phosphate buffered saline (PBS) at 37° C. for 15 minutes. […] Cells were examined with a fluorescence microscope. […] The samples were read on a cytometer.

EL4 thymocytes = experiment: as above; assay type: cell-based; details: thymocyte cells, 20 μM Noscapine, 24 hr
Experimental: as §2

bovine brain tubulin [2] = target: T1, bovine brain tubulin; experiment: Fluorescence titration of tubulin binding (Scatchard plot)
Experimental: as §1

human breast tumors = details: nude mice; cited from earlier work

COc1ccc2c(c1OC)C(=O)O[C@@H]2[C@H]1c2c(cc3c(c2OC)OCO3)CCN1C [Noscapine]
apoptotic morphologies in tumor cells (solid lymphoid tumors): many cells in noscapine treated mice with apoptotic morphologies | tubulin assembly (absorbance at 350 nm) (bovine brain tubulin [1]): promotes tubulin assembly | tumor regression (E.G7-OVA tumor cells; 1.5 or 3.0 mg noscapine/ml of drinking water, continuous): disappeared and did not return during four months of continuous treatment; also recorded: majority of tumors in mice treated with noscapine regress | survival after tumor inoculation (E.G7-OVA tumor cells; majority of mice, 1.5 or 3.0 mg/ml in drinking water from day 3, experiment terminated at 16 weeks): greater than 16 weeks | M phase arrest of microtubule arrays (Hela cells): arrested in M phase | M phase arrest of microtubule arrays (EL4 thymocytes): arrested in M phase | stoichiometry (bovine brain tubulin [2]; Scatchard plot): 0.95±0.02 noscapine molecule per complex of tubulin subunit | quenching of tubulin fluorescence (bovine brain tubulin [2]; excitation 278 nm): fluorescence quenching of tubulin | regression of human breast tumors (human breast tumors): caused regression
